Among the data in patent US20250171437A1 (Agios Pharmaceuticals,Inc., priority 2022, published 2025) are AC50 values, retold here.

As a reminder, the AC50 is the concentration at which the activity in the assay is half-maximal.

Some results are limits rather than exact numbers.

One assay addresses T1, human PAH with the R408W mutation (A375 R408W cells) (Homo sapiens, UniProt P00439, R408W).
T1 construct: expressed in transfected cells
T1 sequence (P00439 1-452 R408W): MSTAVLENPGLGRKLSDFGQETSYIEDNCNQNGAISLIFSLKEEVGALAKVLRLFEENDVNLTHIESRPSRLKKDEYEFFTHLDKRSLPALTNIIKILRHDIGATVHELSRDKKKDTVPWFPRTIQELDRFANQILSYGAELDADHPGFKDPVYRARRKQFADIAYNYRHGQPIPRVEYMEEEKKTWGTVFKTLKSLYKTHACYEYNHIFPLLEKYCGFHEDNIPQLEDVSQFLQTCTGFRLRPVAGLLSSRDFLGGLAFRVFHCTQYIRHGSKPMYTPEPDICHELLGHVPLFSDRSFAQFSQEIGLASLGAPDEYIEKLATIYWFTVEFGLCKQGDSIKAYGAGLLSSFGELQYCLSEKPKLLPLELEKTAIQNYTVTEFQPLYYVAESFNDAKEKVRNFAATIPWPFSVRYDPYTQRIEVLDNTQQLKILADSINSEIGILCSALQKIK
Description: Cell Based Phenylalanine Flux Assay. The following applies: A375 R408W cells; 24 hrs with compound, then 20 μM sepiapterin and 800 μM 13C9,15N-Phenylalanine for 4 hours; 13C-Tyrosine by LC-MS; average where tested multiple times. The method, boiled down:
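A375 cells stably expressing human PAH R408W treated 24 h at 37° C with a 10-point 2-fold dose curve in duplicate, 0.5% DMSO. Then 20 μM sepiapterin and 800 μM 13C9,15N-Phe added for 4 h; 13C-Tyr in media measured by LC-MS to give AC50.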
Take `Cc1ccc2c(C(=O)N3CCc4[nH]cnc4[C@@H]3c3nc4cccc(F)c4o3)cnn2c1` [Example 324, (R)-(4-(7-fluorobenzo[d]oxazol-2-yl)-6,7-dihydro-1H-imidazo[4,5-c]pyridin-5(4H)-yl)(6-methylpyrazolo[1,5-a]pyridin-3-yl)methanone]: the AC50 fell in the range of 1000 to 5000 nM. Same read-out and setting: the same measure for `O=C(c1ocnc1C(F)(F)F)N1CCc2[nH]cnc2[C@@H]1c1nc2ccc(F)cc2o1` [Example 162, (R)-(4-(6-fluorobenzo[d]oxazol-2-yl)-6,7-dihydro-1H-imidazo[4,5-c]pyridin-5(4H)-yl)(4-(trifluoromethyl)oxazol-5-yl)methanone]: 1000 to 5000 nM. The same measure, in the same setting: with `O=C(c1ocnc1C(F)F)N1CCc2[nH]cnc2[C@@H]1c1nc2cccc(Cl)c2o1` [Example 426, (R)-(4-(7-chlorobenzo[d]oxazol-2-yl)-6,7-dihydro-1H-imidazo[4,5-c]pyridin-5(4H)-yl)(4-(difluoromethyl)oxazol-5-yl)methanone] the figure was not above 500 nM; with `C[C@H](O)c1nc(C(F)F)c(C(=O)N2CCc3[nH]cnc3[C@@H]2c2nc3ccc(F)cc3o2)o1` [Example 232, (4-(difluoromethyl)-2-((S)-1-hydroxyethyl)oxazol-5-yl)((R)-4-(6-fluorobenzo[d]oxazol-2-yl)-6,7-dihydro-1H-imidazo[4,5-c]pyridin-5(4H)-yl)methanone], 1000 to 5000 nM; with `CC(C)(CO)c1nc(C(F)F)c(C(=O)N2CCc3[nH]cnc3[C@H]2c2nc3cc(F)ccc3o2)o1` [Example 824, (S)-(4-(difluoromethyl)-2-(1-hydroxy-2-methylpropan-2-yl)oxazol-5-yl)(4-(5-fluorobenzo[d]oxazol-2-yl)-6,7-dihydro-1H-imidazo[4,5-c]pyridin-5(4H)-yl)methanone], not above 500 nM. Still for that read-out and setting: with `CC(C)(O)c1nc(C(F)F)c(C(=O)N2CCc3[nH]cnc3[C@@H]2c2nc3c(F)ccc(F)c3o2)o1` [Example 346, (R)-(4-(4,7-difluorobenzo[d]oxazol-2-yl)-6,7-dihydro-1H-imidazo[4,5-c]pyridin-5(4H)-yl)(4-(difluoromethyl)-2-(2-hydroxypropan-2-yl)oxazol-5-yl)methanone] the figure was 1000 to 5000 nM. Take `O=C(c1ocnc1C(F)F)N1CCc2[nH]cnc2[C@H]1c1nc2ccc(F)cc2o1` [Example 163, (S)-(4-(difluoromethyl)oxazol-5-yl)(4-(6-fluorobenzo[d]oxazol-2-yl)-6,7-dihydro-1H-imidazo[4,5-c]pyridin-5(4H)-yl)methanone]: the AC50 was not above 500 nM. Regarding `CN(C)c1cn2ncc(C(=O)N3CCc4[nH]cnc4[C@H]3c3nc4cc(F)ccc4o3)c2cc1Cl` [Example 207, (S)-(5-chloro-6-(dimethylamino)pyrazolo[1,5-a]pyridin-3-yl)(4-(5-fluorobenzo[d]oxazol-2-yl)-6,7-dihydro-1H-imidazo[4,5-c]pyridin-5(4H)-yl)methanone], the concentration at half-maximal activity (AC50) is not above 500 nM. Still for that read-out and setting: with `Cn1cc(-c2nnc(C(=O)N3CCc4[nH]cnc4[C@@H]3c3nc4cccc(F)c4o3)o2)cn1` [Example 192, (R)-(4-(7-fluorobenzo[d]oxazol-2-yl)-6,7-dihydro-1H-imidazo[4,5-c]pyridin-5(4H)-yl)(5-(1-methyl-1H-pyrazol-4-yl)-1,3,4-oxadiazol-2-yl)methanone] the figure was 1000 to 5000 nM; with `Cn1nc(Br)nc1C(=O)N1CCc2[nH]cnc2[C@@H]1c1nc2c(F)cccc2o1` [Example 472, (R)-(3-bromo-1-methyl-1H-1,2,4-triazol-5-yl)(4-(4-fluorobenzo[d]oxazol-2-yl)-6,7-dihydro-1H-imidazo[4,5-c]pyridin-5(4H)-yl)methanone], 1000 to 5000 nM; with `Cc1ccc2nc([C@H]3c4nc[nH]c4CCN3C(=O)c3oc(C(C)(C)O)nc3C)oc2c1` [Example 320, (R)-(2-(2-hydroxypropan-2-yl)-4-methyloxazol-5-yl)(4-(6-methylbenzo[d]oxazol-2-yl)-6,7-dihydro-1H-imidazo[4,5-c]pyridin-5(4H)-yl)methanone], not below 5000 nM. On to `CC(C)(O)c1nc(C(F)F)c(C(=O)N2CCc3[nH]cnc3[C@@H]2c2nc3c(OC(F)(F)F)cccc3o2)o1` [Example 534, (R)-(4-(difluoromethyl)-2-(2-hydroxypropan-2-yl)oxazol-5-yl)(4-(4-(trifluoromethoxy)benzo[d]oxazol-2-yl)-6,7-dihydro-1H-imidazo[4,5-c]pyridin-5(4H)-yl)methanone], for which the AC50 was not above 500 nM. The same measure, in the same setting: the same measure for `COc1ccc(-c2nc(C(F)F)c(C(=O)N3CCc4[nH]cnc4[C@@H]3c3nc4cc(F)ccc4o3)o2)nc1` [Example 446, (R)-(4-(difluoromethyl)-2-(5-methoxypyridin-2-yl)oxazol-5-yl)(4-(5-fluorobenzo[d]oxazol-2-yl)-6,7-dihydro-1H-imidazo[4,5-c]pyridin-5(4H)-yl)methanone]: not above 500 nM; for `O=C(c1oc(-c2ccccn2)nc1C1CC1)N1CCc2[nH]cnc2[C@@H]1c1nc2cc(F)ccc2o1` [Example 44, (R)-(4-cyclopropyl-2-(pyridin-2-yl)oxazol-5-yl)(4-(5-fluorobenzo[d]oxazol-2-yl)-6,7-dihydro-1H-imidazo[4,5-c]pyridin-5(4H)-yl)methanone]: 1000 to 5000 nM.

In the case of `Cn1nc(C(F)F)nc1C(=O)N1CCc2[nH]cnc2[C@@H]1c1nc2cc(F)cc(F)c2o1` [Example 578, (R)-(4-(5,7-difluorobenzo[d]oxazol-2-yl)-6,7-dihydro-1H-imidazo[4,5-c]pyridin-5(4H)-yl)(3-(difluoromethyl)-1-methyl-1H-1,2,4-triazol-5-yl)methanone], the half-maximal activity concentration (AC50) was in the range of 1000 to 5000 nM. Same read-out and setting: the same measure for `Cc1ccc2oc([C@H]3c4nc[nH]c4CCN3C(=O)c3nnc(-c4ccn(C(F)F)n4)o3)nc2c1` [Example 696, (R)-(5-(1-(difluoromethyl)-1H-pyrazol-3-yl)-1,3,4-oxadiazol-2-yl)(4-(5-methylbenzo[d]oxazol-2-yl)-6,7-dihydro-1H-imidazo[4,5-c]pyridin-5(4H)-yl)methanone]: 1000 to 5000 nM; for `O=C(c1ocnc1C(F)F)N1CCc2[nH]cnc2[C@@H]1c1nc2c(F)c(F)ccc2o1` [Example 349, (R)-(4-(4,5-difluorobenzo[d]oxazol-2-yl)-6,7-dihydro-1H-imidazo[4,5-c]pyridin-5(4H)-yl)(4-(difluoromethyl)oxazol-5-yl)methanone]: 500 to 1000 nM. The same measure, in the same setting: the same measure for `COc1cccc2nc([C@@H]3c4nc[nH]c4CCN3C(=O)c3oc(C(C)(C)O)nc3C(F)F)oc12` [Example 455, (S)-(4-(difluoromethyl)-2-(2-hydroxypropan-2-yl)oxazol-5-yl)(4-(7-methoxybenzo[d]oxazol-2-yl)-6,7-dihydro-1H-imidazo[4,5-c]pyridin-5(4H)-yl)methanone]: not above 500 nM; for `O=C(c1oc(-c2ncccn2)nc1C(F)F)N1CCc2[nH]cnc2[C@@H]1c1nc2cc(F)ccc2o1` [Example 662, (R)-(4-(difluoromethyl)-2-(pyrimidin-2-yl)oxazol-5-yl)(4-(5-fluorobenzo[d]oxazol-2-yl)-6,7-dihydro-1H-imidazo[4,5-c]pyridin-5(4H)-yl)methanone]: 1000 to 5000 nM. In the case of `CC(C)(O)c1ncc(C(=O)N2CCc3[nH]cnc3[C@@H]2c2nc3cccc(F)c3o2)o1` [Example 714, (R)-(4-(7-fluorobenzo[d]oxazol-2-yl)-6,7-dihydro-1H-imidazo[4,5-c]pyridin-5(4H)-yl)(2-(2-hydroxypropan-2-yl)oxazol-5-yl)methanone], the half-maximal activity concentration (AC50) lay within 1000 to 5000 nM. Same read-out and setting: with `[2H]C([2H])([2H])OCc1nc(C(F)F)c(C(=O)N2CCc3[nH]cnc3[C@H]2c2nc3cc(F)ccc3o2)o1` [Example 155, (S)-(4-(difluoromethyl)-2-((methoxy-d3)methyl)oxazol-5-yl)(4-(5-fluorobenzo[d]oxazol-2-yl)-1,4,6,7-tetrahydro-5H-imidazo[4,5-c]pyridin-5-yl)methanone] the figure was not above 500 nM.

Still in this assay, the particulars now being: A375 cells expressing R408W PAH; 24 hrs with compound, then 20 μM sepiapterin and 800 μM 13C9,15N-Phenylalanine for 4 hours; 13C-Tyrosine by LC-MS; average where tested multiple times.
As to `Cn1cnnc1C(=O)N1CCc2[nH]cnc2C1c1nc2cc(F)ccc2o1` (stereo not shown), the concentration at half-maximal activity (AC50) fell in the range of 1000 to 5000 nM. Same read-out and setting: the same measure for `Nc1cc2c(C(=O)N3CCc4[nH]cnc4C3c3nc4cc(F)ccc4o3)cnn2cc1F` (stereo not shown): not below 5000 nM; for `Cn1cnnc1C(=O)N1CCc2[nH]cnc2C1c1nc2ccc(F)cc2o1` (stereo not shown): not below 5000 nM; for `Cn1nc(C(F)F)nc1C(=O)N1CCc2[nH]cnc2C1c1nc2c(F)cc(F)cc2o1` (stereo not shown): 1000 to 5000 nM. Same read-out and setting: with `Cc1nc(C(C)O)oc1C(=O)N1CCc2[nH]cnc2C1c1nc2cc(F)ccc2o1` (stereo not shown) the figure was not below 5000 nM; with `O=C(c1cnn2cc(N3CCC(O)CC3)ccc12)N1CCc2[nH]cnc2C1c1nc2c(F)cc(F)cc2o1` (stereo not shown), not below 5000 nM.

As for `Cn1cncc1-c1nnc(C(=O)N2CCc3[nH]cnc3C2c2nc3c(F)ccc(F)c3o2)o1` (stereo not shown), the AC50 was not below 5000 nM. The same measure, in the same setting: the same measure for `Cc1nc(C(C)(C)O)oc1C(=O)N1CCc2[nH]cnc2C1c1nc2ccc(F)cc2o1` (stereo not shown): not below 5000 nM. Turning to `CN(C)Cc1nnc(C(=O)N2CCc3[nH]cnc3C2c2nc3cc(F)ccc3o2)o1` (stereo not shown), the AC50 fell in the range of 1000 to 5000 nM. Still for that read-out and setting: the same measure for `Cn1nc(C(C)(C)O)cc1C(=O)N1CCc2[nH]cnc2C1c1nc2cc(F)ccc2o1` (stereo not shown): not below 5000 nM.
